Laboratory results reported in PMC7036801, “Synthesis of New Cisplatin Derivatives from Bile Acids” (Molecules, 2020).

How the values were obtained:
[1] = system: T-lymphoblastic leukemia (CEM); test: Cytotoxicity assay (Alamar Blue), CEM; type: cell-based, human; conditions: CEM cells, 72 h of treatment, in DMF
Description: (§1) All new platinum(II) complexes were screened for cytotoxic activity against following tumor cell lines: T-lymphoblastic leukemia (CEM), epithelial breast carcinoma (MCF7), and cervical carcinoma cell lines (HeLa) (Table 2). A control of cytotoxicity was done with normal human fibroblasts (BJ) and human umbilical vein endothelial cells (HUVEC). The cytotoxicity of all substances in BJ and HUVEC was very similar. […] Its sensitivity against HeLa cell line (7.0 µM) was better than that of cisplatin (11.4 µM). However, the toxicity of 23a against normal human cells (BJ and HUVEC) was similar to that of cisplatin. […] Taking into account lack of activity of cholic and hyodeoxycholic acids-based complexes at studied concentrations (against all tested cell lines IC50 > 50 µM) we can suppose that modifications of bile acids should be focused on the most lipophilic lithocholic acid derivatives. The results presented here provide an inspiration for further studies in this area.
(§2) Cisplatin derivatives were evaluated for their cytotoxic activities in vitro in following cell lines derived from various tumors: T-lymphoblastic leukemia (CEM), epithelial breast carcinoma (MCF7) and cervical carcinoma cell lines (HeLa) (all from ECACC, UK) and also in normal human fibroblasts (BJ; from ATCC, USA). Human umbilical vein endothelial cells (HUVEC) were a kind gift from Prof Jitka Ulrichová (Medical Faculty, Palacký University, Olomouc, Czech Republic). HUVEC were grown in ECPM medium (Provitro, Berlin, Germany). Six serial 3-fold dilutions in triplicate of each drug in DMF was administered in every cell line for 72 h. Alamar Blue dye was used for staining of living cells only. IC50 values (50% inhibitory concentrations) were calculated as the proportions of surviving cells. A detailed procedure for the cytotoxicity assay was described previously, except for using Alamar Blue dye instead of Calcein AM [37]. Briefly, the percentage of surviving cells in each well was calculated by dividing the intensity of the fluorescence signals from the exposed wells by the intensity of signals from control wells and multiplying by 100. These ratios were then used to construct dose–response curves, from which IC50 values, i.e., concentrations of the respective compounds that were lethal to 50% of the tumor cells, were calculated. The results obtained from cytotoxicity assays are shown in Table 2 (mean values ± SD obtained from three independent experiments performed in triplicate).

[2] = system: epithelial breast carcinoma (MCF7); test: Cytotoxicity assay (Alamar Blue), MCF7; type: cell-based, human; conditions: MCF7 cells, 72 h of treatment, in DMF
Description: as §1, §2

[3] = system: cervical carcinoma cell lines (HeLa); test: Cytotoxicity assay (Alamar Blue), HeLa; type: cell-based, human; conditions: HeLa cells, 72 h of treatment, in DMF
Description: as §1, §2

[4] = system: normal human fibroblasts (BJ); test: Cytotoxicity assay (Alamar Blue), BJ; type: cell-based; conditions: BJ cells, 72 h of treatment, in DMF
Description: as §1, §2

[5] = system: human umbilical vein endothelial cells (HUVEC); test: Cytotoxicity assay (Alamar Blue), HUVEC; type: cell-based; conditions: 72 h of treatment, in DMF
Description: as §1, §2

[6] = test done at temperature 37 °C due to solubility problems

Work on `C[C@H](CCCNCCN)[C@H]1CC[C@H]2[C@@H]3CCC4C[C@H](O)CC[C@]4(C)[C@H]3CC[C@]12C` (stereo partly drawn) yielded a melting point of 107 to 110 °C.

Work on `C[C@H](CCCNCCN)[C@H]1CC[C@H]2[C@@H]3CCC4C[C@H](O)CC[C@]4(C)[C@H]3C[C@H](O)[C@]12C` (stereo partly drawn) yielded a melting point of 70 to 72 °C.

`C[C@H](CCCNCCN)[C@H]1CC[C@H]2[C@@H]3C[C@H](O)C4C[C@H](O)CC[C@]4(C)[C@H]3CC[C@]12C` (stereo partly drawn) gave a melting point of 72 to 74 °C.

With `C[C@H](CCCNCCCN)[C@H]1CC[C@H]2[C@@H]3CCC4C[C@H](O)CC[C@]4(C)[C@H]3CC[C@]12C` (stereo partly drawn) the melting point was 92 to 94 °C.

`C[C@H](CCCNCCCN)[C@H]1CC[C@H]2[C@@H]3CCC4C[C@H](O)CC[C@]4(C)[C@H]3C[C@H](O)[C@]12C` (stereo partly drawn) showed a melting point of 64 to 66 °C.

With `N.N.[Cl][Pt][Cl]` [cisplatin] the IC50 ([1]; mean ± S.D.) was 0.8 ± 0.1 µM, the IC50 ([2]; mean ± S.D.) was 7.7 ± 1.7 µM and the IC50 ([3]; mean ± S.D.) was 11.4 ± 3.8 µM. For the same molecule, the IC50 ([4]; mean ± S.D.) was 6.9 ± 0.9 µM and the IC50 ([5]; mean ± S.D.) was 5.5 ± 1.1 µM.

Work on “cis-Dichloro-24-[(N-2′-aminoeth-1′-yl-κN)aminocholan-3α-ol-κN]platinum(II) [22a]” yielded an IC50 [1, 6] of 40.2 ± 2.6 µM, an IC50 [2, 6] greater than 50 µM and an IC50 [3, 6] greater than 50 µM. The IC50 [4, 6] was greater than 50 µM and the IC50 [5, 6] was greater than 50 µM.

Molecule “cis-Dichloro-24-[(N-2′-aminoeth-1′-yl-κN)aminocholane-3α,12α-diol-κN]platinum(II) [22b]” has an IC50 ([1]; mean ± S.D.) of 37.1 ± 6.8 µM, an IC50 ([2]; mean ± S.D.) of 20.5 ± 3.1 µM and an IC50 ([3]; mean ± S.D.) of 35.5 ± 5.3 µM. The IC50 ([4]; mean ± S.D.) was 36.6 ± 5.1 µM and the IC50 ([5]; mean ± S.D.) was 38.2 ± 0.6 µM.

“cis-Dichloro-24-[(N-3′-aminoprop-1′-yl-κN)aminocholan-3α-ol-κN]platinum(II) [23a]” showed an IC50 ([1]; mean ± S.D.) of 3.6 ± 0.1 µM, an IC50 ([2]; mean ± S.D.) of 7 ± 0.5 µM and an IC50 ([3]; mean ± S.D.) of 7 ± 0.2 µM. The IC50 ([4]; mean ± S.D.) was 6.3 ± 0.8 µM and the IC50 ([5]; mean ± S.D.) was 6.9 ± 0.6 µM.

Molecule “cis-Dichloro-24-[(N-3′-aminoprop-1′-yl-κN)aminocholane-3α,12α-diol-κN]platinum(II) [23b]” has an IC50 ([1]; mean ± S.D.) of 31.6 ± 3.5 µM, an IC50 ([2]; mean ± S.D.) of 23.3 ± 4.7 µM and an IC50 ([3]; mean ± S.D.) of 36.2 ± 4.3 µM. The IC50 ([4]; mean ± S.D.) was 42.5 ± 3.2 µM and the IC50 ([5]; mean ± S.D.) was 34.4 ± 5.6 µM.
